According to patent publication US20080221074A1, “Drug Screen and Treatment Method” (priority 2006, published 2008):
pIC50: −log10 of the molar value.

Assays:
[1] = tested on: carrageenan-λ induced pleurisy; assay: carrageenan-λ induced lung (pleural cavity) inflammation; type: in vivo, CD1 male mice; settings: for number of neutrophils relative to negative control group (set at 100%): exudate 4 h after
Excerpt: Treatment of lung inflammation. Three compounds, 3β,16α-dihydroxy-17-oxoandrostane, 3α,16β,17β-trihydroxyandrostane and 3α,16α,17α-trihydroxyandrostane were used to treat inflammation in mice essentially as described (D. Auci et al., Ann. New York Acad. Sci. 1051:730-742 2005). Five to 8 week old CD1 male mice (Charles River, Calco, Italy) were used for the study. The animals were housed in a controlled environment and provided with standard rodent chow and water. Animal care was in compliance with applicable regulations on protection of animals. Mice were allocated into one of the following groups: (1) mice treated with 2% carrageenan-k in saline (carrageenan-λ treated control group), (2) mice treated with 0.1 mg, 0.01 mg or 0.001 mg 3β,16α-dihydroxy-17-oxoandrostane by subcutaneous (s.c.) injection 24 h and 1 h before carrageenan-λ administration, (3) mice treated with 0.1 mg, 0.01 mg or 0.001 mg of 3α,16α,17α-trihydroxyandrostane by s.c. injection 24 and 1 h before carrageenan; (4) mice treated with 0.1 mg, 0.01 mg or 0.001 mg […],16β,17β-trihydroxyandrostane by s.c. injection 24 h and 1 h before carrageenan-λ administration; (5) mice treated with vehicle (0.1% carboxymethylcellulose, 0.9% saline, 2% tween 80, 0.05% phenol) s.c. 24 h and 1 h before carrageenan-λ administration; (6) mice treated with rabbit anti-mouse polyclonal anti-TNF-α antibody (200 μg) given as an intraperitoneal bolus 24 h and 1 h before carrageenan-λ administration (positive control group); and (7) sham-operated mice that were not treated with carrageenan-λ. Each group consisted of 10 mice. All treatments were given in a final volume of 100 μL. Lung (pleural cavity) inflammation was induced as follows. The mice were anaesthetised with isoflurane and a skin incision was made at the level of the left sixth intercostal space. The underlying muscle was dissected and either 0.1 mL saline (control) or 0.1 mL saline containing 2% λ-carrageenan was injected into the pleural cavity. The carrageenan-λ is a potent inducer of inflammation, which is manifested in this protocol by accumulation of fluid and neutrophils in the pleural cavity. The incision was closed with a suture and the animals were allowed to recover.
At 4 h after the injection of carrageenan-λ, the animals were euthanized by exposure to CO2. The chest was carefully opened and the pleural cavity rinsed with 1 mL of saline solution containing heparin (5 U/mL) and indomethacin (10 μg/mL). The exudate and washing solution were removed by aspiration and the total volume measured. Any exudate contaminated with blood was discarded. The amount of exudate was calculated by subtracting the injected 1 mL volume from the total pleural cavity volume that was recovered. The neutrophils in the exudate were suspended in phosphate-buffer saline and counted with an optical microscope in a Burker's chamber after Trypan Blue staining. The results were analysed by one-way ANOVA followed by a Bonferroni post-hoc test for multiple comparisons. A p-value less than 0.05 was considered significant. For statistical analysis each group was compared to the control group of mice that were challenged with carrageenan-k and received no other treatment.
The table below describes the number of neutrophils from the treated animal groups relative to untreated control animals that were exposed to carrageenan-λ, but not treated with anything else (negative control group). The neutrophil number for the negative control group was set at 100% and other groups were compared to this.

NF-κB = assay: inhibition of NF-κB activation in NF-κB-bla THP-1 cells after LPS stimulation; type: cell-based, human; settings: Homo sapiens, THP-1
Excerpt: Inhibition of NF-κB in vitro. […] Activation of NF-κB increases expression of a number of genes that mediate inflammation. This protocol used human THP-1 cells, which are human mononuclear blood cells with a monocyte phenotype. The cell line, referred to as NF-κB-bla THP-1, contained a β-lactamase reporter gene under the control of the NF-kB response element (Invitrogen, CellSensor™, product No. K1176). In this cell line, the β-lactamase reporter gene is stably integrated in the THP-1 cells. This cell line was used to detect agonists or antagonists of the NF-κB signaling pathway. These NF-κB-bla THP-1 cells respond to the presence of tumor necrosis factor alpha (TNFα) or bacterial lipopolysaccharide (LPS) by increased expression of the β-lactamase reporter gene. The level of β-lactamase enzyme activity was measured by fluorescence resonance energy transfer ratiometric detection. TNFα and LPS are both potent inflammation-inducing agents that activate NF-κB in THP1 cells. In this assay, compounds that decrease NF-κB activity, and thus β-lactamase, in the presence of TNFα or LPS are exerting an anti-inflammation activity.
The NF-κB-bla THP-1 cells were maintained by passaging or feeding as needed. […] The cells were plated at 20,000 cells/well in a 384-well Black-wall, clear bottom assay plates (Costar#3712-TC low fluorescence background plates) approximately 24 hours before adding either TNFα at 10 ng/mL or LPS at 0.2 ng/mL to activate NF-κB.
The assays were usually conducted 2-4 times for each compound and the values shown below are averages for each compound.

[2] = metabolic stability in liver microsomes, species not stated; settings: compared with androst-5-ene-3β,17β-diol
Description: The protocol was performed as follows. […] (2) Set up samples as follows. […] (4) The internal standard/acetonitrile solution.

EAE = assay: experimental allergic encephalomyelitis (EAE), PLP 139-151; type: in vivo, female SJL/J mice; settings: 5 mg/kg daily oral gavage; through day 26
Excerpt: Treatment of autoimmune neurodegeneration. Three compounds, 17β-aminoandrost-5-ene-3β-ol, 17β-dimethylaminoandrost-5-ene-3β-ol and 17β-methylaminoandrost-5-ene-3β-ol were characterized for their capacity to ameliorate experimental allergic encephalomyelitis (EAE) in mice. This demyelinating condition is extensively used as a model for multiple sclerosis in humans and for testing of new therapies for treating multiple sclerosis, e.g., B. F. Bebo Jr. et al., J. Neurosci. Res. 52:420-426 1998; R. R. Voskuhl et al., Neuroscientist, 7:258-270 2001; H. Offner et al., J. Neuroimmunol., 130:128-139 2002.
In this protocol, the compounds were administered to female SJL/J mice by oral gavage at the onset of disease symptoms. An antigen was used to initiate the EAE condition in the mice. […] Immunization with this peptide antigen initiates an autoimmune Thl mediated demyelinating disease of the central nervous system. The antigen was prepared by solid phase synthesis and purified by high-performance liquid chromatography. […] The immunization protocol was subcutaneous injection over four sites on the hind flank on day 0. After immunization. the mice were assessed daily for clinical signs of EAE using the following scale: 0=no clinical signs or symptoms; 1=limp tail; 2=mild hind limb weakness and limp tail; 3=moderate hind limb weakness and limp tail or mild ataxia; 4=severe hind limb weakness and mild forearm weakness with moderate ataxia; 5=paraplegia with no more than moderate forelimb weakness; 6=paraplegia with severe forelimb weakness or severe ataxia or moribund condition.
Mice in the vehicle control group began to show observable symptoms of EAE at about 10-11 days after immunization with the PLP antigen, which is typical for the EAE disease model. The animals were dosed daily with 17β-aminoandrost-5-ene-3β-ol, 17β-dimethylaminoandrost-5-ene-3β-ol or 17β-methylaminoandrost-5-ene-3β-ol by oral gavage beginning at day 1, which was 1 day after immunization.

[3] = tested on: human T lymphocytes (PBMC); assay: human mixed lymphocyte reaction (MLR); type: cell-based; settings: 300 nM
Excerpt: Human mixed lymphocyte reaction (MLR). The capacity of 3β,16α-dihydroxy-17-oxoandrostane, 3β,17β-dihydroxy-16-oxoandrostane, 17α-ethynylandrost-5-ene-3β,7β,17β-triol, and 17β-aminoandrost-5-ene-3β-ol to affect antigen specific stimulation in which human T lymphocytes respond to a specific foreign antigen (major histocompatibility complex).
Blood samples were obtained from 3 (2 males, […]) fasting, healthy human volunteers of 23-31 years old. […] The subjects were bled between 9 and 10 AM to limit possible fluctuations in the circulating levels of hormones or cytokines that could have influenced the in vitro responses of their lymphocytes. Peripheral blood mononuclear cells (PBMC) were isolated by centrifugation on Ficoll-Hypaque (density 1.077, Biochrom AG, Berlin, Germany) gradients and resuspended in culture medium (RPMI 1640 supplemented with 2 mM L-glutamine, penicillin (100 U/mL) and streptomycin ([…]) (Invitrogen s.rl., Milan, Italy). Autologous (responder) inactivated plasma was used at 10%. Five hundred thousand responder PBMC (PBMCr) and 500,000 allogeneic irradiated (30 Gy) stimulator PBMC (PBMCs) were mixed at a ratio of 1:1 in 200 μL medium and cultured for 6 days in flat bottom 96 well plates (Nunc, Roskilde, Denmark) at a concentration of 300 nM or 30 nM for each of the 4 compounds. The compounds were dissolved in ethanol and then diluted to the desired concentration with culture medium leading to a final solution containing 0.01% of ethanol. This vehicle was used as control. Controls also included PBMCr and PBMCs cultured separately. During the last 8 hours of the culture period the PBMC were pulsed with […] [^3H] thymidine (Amersham, Milan, Italy). The cells were then harvested and radioactivity incorporation measured with a beta cell counter. The mean cpm of quadruplicate wells was calculated. Proliferation of T cells was expressed as a stimulation index: SI=cpm (PMBCs xPBMCr)/cpm (PBMCr)+cpm (PBMCs). Statistical analysis was performed using the Student's t test. The cpm obtained from quadruplicate of each test compound were compared to proliferative responses obtained in control PBMCr and PBMCs cultured in the presence of the vehicle. Differences were considered significant at p<0.05.

[4] = tested on: ionizing radiation exposure; assay: survival after lethal total body irradiation (10 Gy); type: in vivo, female B6D2F1 mice; settings: 0.6 mg s.c. daily for 3 days
Description: Treatment of ionizing radiation exposure. The effect of selected F1Cs on survival of lethally-irradiated female B6D2F1 mice were compared to control animals treated with vehicle alone. […] For Group 4, test article was administered as a 50 μL volume, by intramuscular injection for three consecutive days. The formulation was a a suspension containing 0.1% w/v carboxymethyl-cellulose, 0.9% w/v sodium chloride and 0.05% v/v phenol. The formulations were agitated to uniformly resuspend the Fl C before syringing, and injected into animals within a few minutes of drawing into the syringe to prevent settling in the syringe.
The groups of animals were treated as follows. […] The number of surviving animals is shown for day 6, 7, 12 and 21.

Row | Compound | number of neutrophils relative to negative control group (set at 100%) ([1]; 0.01 mg s.c. 24 h and 1 h before carrageenan-λ) [%] | number of neutrophils relative to negative control group (set at 100%) ([1]; 0.1 mg s.c. 24 h and 1 h before carrageenan-λ) [%] | pIC50 (NF-κB) | rate of metabolism by microsomes [2] | anti-inflammation activity compared to vehicle controls ([1]; oral gavage, 1 mg and 0.1 mg (17α-ethynyl triol), 40 mg/kg (17β-amino compound)) | clinical severity of EAE symptoms (EAE) | immune suppression (inhibition of the MLR) [3] | number of surviving animals (groups of 12) ([4]; day 6) | number of surviving animals (groups of 12) ([4]; day 7) | number of surviving animals (groups of 12) ([4]; day 12) | number of surviving animals (groups of 12) ([4]; day 21)
1 | C[C@]12CC[C@H]3[C@@H](CCC4C[C@H](O)CC[C@@]43C)[C@@H]1C[C@@H](O)[C@H]2O (stereo partly drawn) [3α,16α,17α-trihydroxyandrostane] | 45 | 30 | < 5.00 | metabolized by microsomes at a rate similar to the androst-5-ene-3β,17β-diol reference compound | – | – | – | – | – | – | –
2 | C[C@]12CC[C@H]3[C@@H](CC=C4C[C@@H](O)CC[C@@]43C)[C@@H]1C[C@@H](O)[C@@H]2O [androst-5-ene-3β,16α,17β-triol] | – | – | – | metabolized by microsomes at a rate similar to the androst-5-ene-3β,17β-diol reference compound | – | – | – | – | – | – | –
3 | C[C@]12CC[C@H]3[C@@H](CC=C4C[C@@H](O)CC[C@@]43C)[C@@H]1CC[C@@H]2N [17β-aminoandrost-5-ene-3β-ol] | – | – | – | – | statistically significant anti-inflammation activity | reduced the clinical severity | moderately immune suppressive | 12 | 12 | 12 | 11
